Test results: patent publication US20090105562A1, “SYSTEM AND METHODS FOR SCREENING OR ANALYZING TARGETS” (TAIPEI VETERANS GENERAL HOSPITAL, priority 2007, published 2009)

Key:
[1] = Bile duct microdialysis with HPLC-UV of unbound cefoperazone in rat bile; format: in vivo; conditions: male, Sprague-Dawley, bile microdialysate (bile duct), 360 min following cefoperazone intravenous administration (30 mg/kg), read-out: cefoperazone concentration in microdialysate from rat biliary duct
Procedure: Adult, male Sprague-Dawley rats (280-350 g) were obtained from the Laboratory Animal Center at National Yang-Ming University (Taipei, Taiwan). These animals were specifically pathogen-free and were allowed to acclimate to their environmentally controlled quarters (24±1° C. and 12:12 h light-dark cycle) for at least 5 days before the experiments began. At the start of experiments, the rats were anesthetized with urethane 0.8 g/ml and chloralose 0.08 g/ml ([…], i.p.). Throughout the experimental period, anesthesia was maintained by administering one quarter of the initial dose at each hour. The experimental animals were kept warm with a heating pad throughout the experiments.
The HPLC system consisted of a chromatographic pump (BAS PM-80, Bioanalytical System, West Lafayette, Ind., USA), an on-line injector (CMA/160, Stockholm, Sweden) equipped with a 20 μl sample loop and a UV detector (Soma S-3702, Tokyo, Japan). […] Output signal from the HPLC-UV was recorded using an EZChrom chromatographic data system (Scientific Software, San Ramon, Calif., USA). […]
For in vivo recovery, normal saline solution containing cefoperazone (50 or 100 μg/ml) were pumped through the probes at a constant flow rate (2 μl/min) using the infusion pump (CMA/100). After a stabilization period of 2 h, the inlet (C^in) and outlet (C^out) concentrations of cefoperazone were determined by HPLC. […]

c-FLIP promoter = c-FLIP promoter luciferase assay in fluoxetine-treated NSCs; format: cell-based, rat; conditions: fluoxetine 20 μm
Procedure: All animal used were treated in accordance with the Animal Care and Use Committee guideline at Taipei Veterans General Hospital. Adult Sprague-Dawley rats (8 weeks old, 250 g) were anesthetized with intraperitoneal phenobarbital (Sigma, USA). The location of their brains was mapped: then, the brain was surgically separated from the hippocampus region with the procedure. Tissues from the hippocampus of the adult SD rats were dissociated and incubated in Hank's balanced salt solution (HBSS) containing collagenase (78 units/ml) and hyaluronidase (38 units/ml) for 10 mins at 37° C. The tissues were then mechanically dissected and placed in a trypsin solution (1.33 mg/ml) at 37° C. for another 10 mins. Dissociated cells were then centrifuged at 150 g for 5 mins. The enzyme solution was then removed and replaced with serum-free culture media composed of Dulbecco modified Eagle medium (DMEM) and F-12 nutrient (1:1) including insulin (25 μg/mL), transferrin (100 μg/mL), progesterone (20 nM), putrescine (60 μM), sodium selenite (30 nM), and human […] epidermal growth factor (EGF) 20 ng/mL and fibroblast growth factor-basic (bFGF) 20 ng/mL (R&D Systems, Minneapolis, Minn.). Viable cells were counted by trypan blue exclusion and plated as 5000 cells/200 μL per well in 96-well plates (Corning, Acton, Mass.) with no substrate pretreatment. […]

c-FLIP [2] = experiment: c-FLIP mRNA expression in fluoxetine-treated NSCs (real-time RT-PCR); format: cell-based, rat; conditions: FL-treated NSCs
Procedure: All animal used were treated in accordance with the Animal Care and Use Committee guideline at Taipei Veterans General Hospital. Adult Sprague-Dawley rats (8 weeks old, 250 g) were anesthetized with intraperitoneal phenobarbital (Sigma, USA). The location of their brains was mapped: then, the brain was surgically separated from the hippocampus region with the procedure. Tissues from the hippocampus of the adult SD rats were dissociated and incubated in Hank's balanced salt solution (HBSS) containing collagenase (78 units/ml) and hyaluronidase (38 units/ml) for 10 mins at 37° C. The tissues were then mechanically dissected and placed in a trypsin solution (1.33 mg/ml) at 37° C. for another 10 mins. Dissociated cells were then centrifuged at 150 g for 5 mins. […] Viable cells were counted by trypan blue exclusion and plated as 5000 cells/200 μL per well in 96-well plates (Corning, Acton, Mass.) with no substrate pretreatment.
For real-time RT-PCR, the total RNA was extracted using the RNAeasy kit (Qiagen, Valencia, Calif., USA) as previously described C. […] The quantification in the unknown samples was performed by the LightCycler Relative Quantification Software version 3.3 (Roche Molecular Systems, Alameda, Calif., USA). […]

c-FLIP [3] = experiment: Protein levels of c-FLIP and pro-caspases in fluoxetine-treated NSCs (Western, immunostaining); format: cell-based, rat
Procedure: All animal used were treated in accordance with the Animal Care and Use Committee guideline at Taipei Veterans General Hospital. Adult Sprague-Dawley rats (8 weeks old, 250 g) were anesthetized with intraperitoneal phenobarbital (Sigma, USA). The location of their brains was mapped: then, the brain was surgically separated from the hippocampus region with the procedure. Tissues from the hippocampus of the adult SD rats were dissociated and incubated in Hank's balanced salt solution (HBSS) containing collagenase (78 units/ml) and hyaluronidase (38 units/ml) for 10 mins at 37° C. The tissues were then mechanically dissected and placed in a trypsin solution (1.33 mg/ml) at 37° C. for another 10 mins. Dissociated cells were then centrifuged at 150 g for 5 mins. The enzyme solution was then removed and replaced with serum-free culture media composed of Dulbecco modified Eagle medium (DMEM) and F-12 nutrient (1:1) including insulin (25 μg/mL), transferrin (100 μg/mL), progesterone (20 nM), putrescine (60 μM), sodium selenite (30 nM), and human […] epidermal growth factor (EGF) 20 ng/mL and fibroblast growth factor-basic (bFGF) 20 ng/mL (R&D Systems, Minneapolis, Minn.). Viable cells were counted by trypan blue exclusion and plated as 5000 cells/200 μL per well in 96-well plates (Corning, Acton, Mass.) with no substrate pretreatment.
The pGL3-FLIP was obtained from based on T. Bartke et al., Oncogene 20 (2001) 571-580. The c-FLIP promoter deletion constructs pGL3-FLIP978, pGL3-FLIP696, pGL3-FLIP414 and pGL3-FLIP132 were generated by PCR amplification of corresponding DNA sequences from pGL3-FLIP using the following forward primers 5′-[…] […]
An avidin-biotin complex method was used for the immunohistochemical staining in the differentiated NSCs. […] Immunoreactive signals were detected with a mixture of biotinylated rabbit antimouse IgG and Fluoesave (Calbiochem, La Jolla, Calif., USA) under immunofluorescent microscope (Olympus FV300).

[4] = different concentrations of fluoxetine treatment

Compound	concentration at 360 min [1] [ng/mL]	c-FLIP promoter (−414 to −133 bp) region activity (c-FLIP promoter)	mRNA expression of c-FLIP (c-FLIP [2])	protein expression of c-FLIP (c-FLIP [3]; FL-treated NSCs)	protein level of inactive caspase 3 (pro-form) (c-FLIP [3]; [4])	protein level of inactive caspase 8 (pro-form) (c-FLIP [3]; [4])
CCN1CCN(C(=O)N[C@@H](C(=O)N[C@@H]2C(=O)N3C(C(=O)O)=C(CSc4nnnn4C)CS[C@H]23)c2ccc(O)cc2)C(=O)C1=O [cefoperazone]	27800	–	–	–	–	–
CNCCC(Oc1ccc(C(F)(F)F)cc1)c1ccccc1 (stereo not drawn) [FL, fluoxetine]	–	Activates	up-regulated	up-regulated	not decreased	not decreased
